Experimental data: PubChem BioAssay (NCI)
Values joined by “and” are separate entries in the source; they are usually repeats but may differ in a detail not shown here. Equal values may be shown once.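 Compound exposure: 48 hours, 5 concentrations, 96-well plates. GI50 marks 50% less growth. Definition used: TGI = concentration required for complete inhibition of growth.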

Columns and labels:
Assay in all cases: NCI-60 cell line screen, 48 h
A498 renal = system: A498 renal
BT-549 breast = system: BT-549 breast
IGROV1 ovarian = system: IGROV1 ovarian
NCI-H23 lung = system: NCI-H23 lung
NCI/ADR-RES ovarian = system: NCI/ADR-RES ovarian
SF-295 CNS = system: SF-295 CNS
SK-OV-3 ovarian = system: SK-OV-3 ovarian
SW-620 colon = system: SW-620 colon
U251 CNS = system: U251 CNS
UO-31 renal = system: UO-31 renal

Row | SMILES | GI50 (A498 renal) [µM] | TGI (A498 renal) [µM] | GI50 (BT-549 breast) [µM] | TGI (BT-549 breast) [µM] | GI50 (IGROV1 ovarian) [µM] | TGI (IGROV1 ovarian) | GI50 (NCI-H23 lung) [µM] | GI50 (NCI/ADR-RES ovarian) [µM] | TGI (NCI/ADR-RES ovarian) [µM] | GI50 (SF-295 CNS) [µM] | TGI (SF-295 CNS) [µM] | GI50 (SK-OV-3 ovarian) [µM] | TGI (SK-OV-3 ovarian) | GI50 (SW-620 colon) [µM] | GI50 (U251 CNS) [µM] | TGI (U251 CNS) | GI50 (UO-31 renal) [µM] | TGI (UO-31 renal) [µM] | TGI (NCI-H23 lung) [µM] | TGI (SW-620 colon) [µM]
1 | C[C@]12CC[C@@H]3c4ccc(OC(=O)N(CCCl)CCCl)cc4CC[C@H]3[C@@H]1CC[C@@H]2O | 1.6 | 9 | 4.64 | 17.1 | 4.7 | 33.4 µM and 3.65 µM | 2.79 | 1.92 | 8.81 | 0.819 | 4.14 | 4.71 | 36.8 µM and 7.95 µM | 1.58 | 2.58 | 13.8 µM and 26.9 µM | 3.12 | 14 | – | –
2 | COc1cccc(N2CCN(CC(=O)N3CCN(c4nnc(-c5ccc(Cl)cc5)c(-c5ccc(Cl)cc5)n4)CC3)CC2)c1 | 19.6 | 52.1 | 12.9 | > 100 | 11.1 | 84.7 µM | 33.6 | 19.9 | > 100 | 28.9 | > 100 | 22 | 77.6 µM | 64.9 | 16.7 | > 100 µM | 3.63 | > 100 | > 100 | > 100
3 | COc1ccc(-c2nn(-c3cccc(Cl)c3)cc2-c2cc(-c3cccs3)[nH]c(=S)n2)cc1 | 3.01 | 17 | 3.18 | 15.9 | 3.61 | 15.3 µM | 3.43 | 4.77 | 41.8 | 2.07 | 7.09 | 5.91 | 36.8 µM | 3.79 | 2.6 | 12.4 µM | 2.82 | 26.5 | 16.2 | 22.3
4 | CN(CCO)CC[C@H](CSc1ccccc1)Nc1ccc(S(=O)(=O)NC(=O)c2ccc(N3CCC([C@@H](O)c4ccccc4-c4ccc(Cl)cc4)CC3)cc2)cc1S(=O)(=O)C(F)(F)F | 0.0288 | 0.252 | 2.69 | 11 | 2.6 | 6.63 µM | 17.7 | > 100 | > 100 | 4.23 | 25.3 | 4.98 | 20.7 µM | 2.43 | 2.82 | 8.88 µM | > 100 | > 100 | > 100 | 8.91
5 | C[C@@]1(C(=O)O)CCC[C@]2(C)C1CC[C@@]13CC(=O)[C@@](CO)(CC[C@]12O)C3 (stereo partly drawn) | 19.7 | > 100 | > 100 | > 100 | > 100 | > 100 µM | > 100 | > 100 | > 100 | > 100 | > 100 | 21.3 | > 100 µM | > 100 | > 100 | > 100 µM | > 100 | > 100 | > 100 | > 100
6 | CCOc1cccc(/C=N/N=C2\C(=O)Nc3c(Cl)cc(Cl)cc32)c1O | – | > 100 | – | > 100 | – | > 100 µM | – | – | > 100 | – | > 100 | – | > 100 µM | – | – | > 100 µM | – | > 100 | > 100 | > 100
7 | O=C(CCCCCCNC(=O)c1cnc(N(c2ccccc2)c2ccccc2)nc1)NO | 2.5 | 14.8 | 12.5 | > 84.3 | 3.2 | 16.6 µM | 3.97 | 14.4 | > 96.8 | 2.95 | 10.8 | 3.25 | 23.8 µM | 1.94 | 3 | 15.6 µM | 4.63 | 36.6 | 38.6 | > 29.7
8 | C[C@H](NC(=O)[C@@H](C)N)[C@H](Oc1ccc2c(cnn2-c2ccc(F)cc2)c1)c1ccc2c(c1)OCCO2 | 11.5 | 24.4 | 1.82 | 15 | 1.84 | 5.07 µM | 3.93 | 2.69 | 13.5 | 1.95 | 3.9 | 0.208 | 13.5 µM | 1.71 | 2.4 | 5.56 µM | 1.39 | 3.27 | 15.6 | 3.36
9 | O=C1C(Cl)=C(Nc2cccc(Cl)c2)C(=O)N1Cc1ccc(Cl)cc1 | 1.55 | 11.9 | 0.338 | 2.84 | 1.19 | > 39.3 µM | 0.378 | 0.298 | 3.28 | 0.532 | 15.6 | 6.34 | 24.6 µM | 0.323 | 0.312 | 14.2 µM | 1.74 | 24.5 | 2.12 | 9.97
10 | CSC(=Nc1nnc(-c2ccc([N+](=O)[O-])cc2)s1)SC | – | 64.6 | – | > 100 | – | > 91.6 µM | – | – | > 100 | – | 50 | – | 62.4 µM | – | – | 58.1 µM | – | 71.5 | 98.6 | > 100
11 | CCN(Cc1ccc(Cl)cc1)c1ccc(CO)c(Cl)c1 | 0.0311 | 0.153 | 5.02 | 19.4 | 0.0867 | 0.641 µM | 3.23 | 5.59 | 20.9 | 0.997 | 12.1 | 2.6 | 12.9 µM | 0.824 | 0.863 | 13 µM | 2.18 | 13.5 | 22.8 | 16.4
12 | CCN(Cc1cc(Nc2nc(C)cn3c(-c4cn[nH]c4)cnc23)sn1)C(C)(C)CO | < 0.01 | 0.0163 | 0.0458 | 1.18 | 0.0257 | 12.9 µM | 0.191 | 1.12 | > 44.7 | 0.0468 | 3.36 | 0.0241 | 3.38 µM | < 0.0107 | 0.0289 | 2.21 µM | 0.0428 | 10.1 | 7.09 | 5.08
